{"source": "paper PMC5122408", "about": "“High throughput chemical library screening identifies a novel p110-δ inhibitor that potentiates the anti-myeloma effect of bortezomib” (Oncotarget, 2016)", "key": {"ERBB2": {"molecular_target": "ERBB2 (Homo sapiens, UniProt P04626)", "experiment": "Kinase inhibitory profile", "format": "biochemical", "conditions": "Other Clinically-relevant Kinases; 10-point concentration assays"}, "MAPK": {"system": "MAPK", "experiment": "Kinase inhibitory profile", "format": "biochemical", "conditions": "Other Clinically-relevant Kinases; 10-point concentration assays"}, "A549": {"system": "A549", "experiment": "NCI-60 panel cell growth screen", "format": "cell-based, human", "conditions": "A549 (NSCLC)"}, "HO-92": {"system": "HO-92", "experiment": "NCI-60 panel cell growth screen", "format": "cell-based, human", "conditions": "HO-92 (NSCLC)"}, "NCI-H23": {"system": "NCI-H23", "experiment": "NCI-60 panel cell growth screen", "format": "cell-based, human", "conditions": "NCI-H23 (NSCLC)"}, "NCI-H522": {"system": "NCI-H522", "experiment": "NCI-60 panel cell growth screen", "format": "cell-based, human", "conditions": "NCI-H522 (NSCLC)"}, "HT29": {"system": "HT29", "experiment": "NCI-60 panel cell growth screen", "format": "cell-based, human", "conditions": "HT29 (Colon cancer)"}, "KM12": {"system": "KM12", "experiment": "NCI-60 panel cell growth screen", "format": "cell-based, human", "conditions": "KM12 (Colon cancer)"}, "SW-620": {"system": "SW-620", "experiment": "NCI-60 panel cell growth screen", "format": "cell-based, human", "conditions": "SW-620 (Colon cancer)"}, "CXCR12": {"system": "CXCR12", "experiment": "CXCL12/SDF-1 alpha ELISA, MM cells co-cultured with BMSCs", "format": "cell-based, human"}, "MM cells": {"system": "MM cells", "experiment": "XTT viability, MM cells (DT97 vs idelalisib)", "format": "cell-based", "conditions": "parental and drug-resistant MM cells; 1 uM; 72 h; XTT assay", "procedure": "Values represent the average of triplicate measurements. […] Values represent the average of triplicate measurements. […] Values represent the average of triplicate measurements.\nCells were plated, treated as indicated for 72 h and 2, 3-bis-(2-methoxy-4-nitro-5-sulfophenyl)-2H-tetrazolium-5-carboxanilide) added (Sigma-Aldrich) after activation with N-methyl dibenzopyrazine methyl sulfate (Sigma-Aldrich). Absorbance was measured and the effect on myeloma viability determined as previously described. Assays were performed in triplicate and the mean and standard deviation determined. Relative cell viability (mean ± SD) was calculated compared to readings from untreated cells."}, "[1]": {"conditions": "read-out: LC50 (the source's name)"}}, "data": [{"substance": "N-[4-hydroxy-3-(8-quinolinylthio)-1-naphthyl]benzenesulfonamide [DT97]", "values": [{"measurement": "Inhibitory profile (kinase inhibition)", "setting": "ERBB2", "value": "+"}, {"measurement": "Inhibitory profile (kinase inhibition)", "setting": "MAPK", "value": "+"}, {"measurement": "GI50", "setting": "A549", "value": 747, "unit": "nM"}, {"measurement": "TGI", "setting": "A549", "value": "1.81E-5"}, {"measurement": "Percent Growth", "setting": "A549; log concentration −4.0", "value": "−46", "unit": "%"}, {"measurement": "Percent Growth", "setting": "A549; log concentration −5.0", "value": 16, "unit": "%"}, {"measurement": "Percent Growth", "setting": "A549; log concentration −6.0", "value": 41, "unit": "%"}, {"measurement": "Percent Growth", "setting": "A549; log concentration −7.0", "value": 112, "unit": "%"}, {"measurement": "Percent Growth", "setting": "A549; log concentration −8.0", "value": 106, "unit": "%"}, {"measurement": "GI50", "setting": "HO-92", "value": 2610, "unit": "nM"}, {"measurement": "TGI", "setting": "HO-92", "value": "7.38E-6"}, {"measurement": "Percent Growth", "setting": "HO-92; log concentration −4.0", "value": "−89", "unit": "%"}, {"measurement": "Percent Growth", "setting": "HO-92; log concentration −5.0", "value": "−15", "unit": "%"}, {"measurement": "Percent Growth", "setting": "HO-92; log concentration −6.0", "value": 96, "unit": "%"}, {"measurement": "Percent Growth", "setting": "HO-92; log concentration −7.0", "value": 77, "unit": "%"}, {"measurement": "Percent Growth", "setting": "HO-92; log concentration −8.0", "value": 84, "unit": "%"}, {"measurement": "CC50", "setting": "HO-92; [1]", "value": 29800, "unit": "nM"}, {"measurement": "GI50", "setting": "NCI-H23", "value": 1930, "unit": "nM"}, {"measurement": "TGI", "setting": "NCI-H23", "value": "1.28E-5"}, {"measurement": "Percent Growth", "setting": "NCI-H23; log concentration −4.0", "value": "−58", "unit": "%"}, {"measurement": "Percent Growth", "setting": "NCI-H23; log concentration −5.0", "value": 7, "unit": "%"}, {"measurement": "Percent Growth", "setting": "NCI-H23; log concentration −6.0", "value": 67, "unit": "%"}, {"measurement": "Percent Growth", "setting": "NCI-H23; log concentration −7.0", "value": 102, "unit": "%"}, {"measurement": "Percent Growth", "setting": "NCI-H23; log concentration −8.0", "value": 98, "unit": "%"}, {"measurement": "CC50", "setting": "NCI-H23; [1]", "value": 75900, "unit": "nM"}, {"measurement": "GI50", "setting": "NCI-H522", "value": 2120, "unit": "nM"}, {"measurement": "TGI", "setting": "NCI-H522", "value": "8.17E-6"}, {"measurement": "Percent Growth", "setting": "NCI-H522; log concentration −4.0", "value": "−48", "unit": "%"}, {"measurement": "Percent Growth", "setting": "NCI-H522; log concentration −5.0", "value": "−7", "unit": "%"}, {"measurement": "Percent Growth", "setting": "NCI-H522; log concentration −6.0", "value": 68, "unit": "%"}, {"measurement": "Percent Growth", "setting": "NCI-H522; log concentration −7.0", "value": 95, "unit": "%"}, {"measurement": "Percent Growth", "setting": "NCI-H522; log concentration −8.0", "value": 95, "unit": "%"}, {"measurement": "GI50", "setting": "HT29", "value": 2420, "unit": "nM"}, {"measurement": "TGI", "setting": "HT29", "value": "1.44E-5"}, {"measurement": "Percent Growth", "setting": "HT29; log concentration −4.0", "value": "−44", "unit": "%"}, {"measurement": "Percent Growth", "setting": "HT29; log concentration −5.0", "value": 8, "unit": "%"}, {"measurement": "Percent Growth", "setting": "HT29; log concentration −6.0", "value": 76, "unit": "%"}, {"measurement": "Percent Growth", "setting": "HT29; log concentration −7.0", "value": 108, "unit": "%"}, {"measurement": "Percent Growth", "setting": "HT29; log concentration −8.0", "value": 103, "unit": "%"}, {"measurement": "CC50", "setting": "HT29; [1]", "value": "> 100000", "unit": "nM"}, {"measurement": "GI50", "setting": "KM12", "value": 2030, "unit": "nM"}, {"measurement": "TGI", "setting": "KM12", "value": "1.65E-5"}, {"measurement": "Percent Growth", "setting": "KM12; log concentration −4.0", "value": "−87", "unit": "%"}, {"measurement": "Percent Growth", "setting": "KM12; log concentration −5.0", "value": 24, "unit": "%"}, {"measurement": "Percent Growth", "setting": "KM12; log concentration −6.0", "value": 61, "unit": "%"}, {"measurement": "Percent Growth", "setting": "KM12; log concentration −7.0", "value": 104, "unit": "%"}, {"measurement": "Percent Growth", "setting": "KM12; log concentration −8.0", "value": 104, "unit": "%"}, {"measurement": "CC50", "setting": "KM12; [1]", "value": 46600, "unit": "nM"}, {"measurement": "GI50", "setting": "SW-620", "value": 1040, "unit": "nM"}, {"measurement": "TGI", "setting": "SW-620", "value": "1.16E-5"}, {"measurement": "Percent Growth", "setting": "SW-620; log concentration −4.0", "value": "−49", "unit": "%"}, {"measurement": "Percent Growth", "setting": "SW-620; log concentration −5.0", "value": 3, "unit": "%"}, {"measurement": "Percent Growth", "setting": "SW-620; log concentration −6.0", "value": 51, "unit": "%"}, {"measurement": "Percent Growth", "setting": "SW-620; log concentration −7.0", "value": 88, "unit": "%"}, {"measurement": "Percent Growth", "setting": "SW-620; log concentration −8.0", "value": 94, "unit": "%"}, {"measurement": "CC50", "setting": "SW-620; [1]", "value": "> 100000", "unit": "nM"}, {"measurement": "production of CXCR12", "setting": "CXCR12", "value": "induction was inhibited"}, {"measurement": "viability", "setting": "MM cells", "value": "more potently than idelalisib"}]}]}
